Test results published in patent US20260091078A1, “OLIGOPEPTIDE THAT INHIBITS ANGIOGENESIS AND VASCULAR FUNCTION” (UNIVERSIDAD NACIONAL AUTONOMA DE MEXICO, priority 2019, published 2026).

Experiments:
[1] = system: endothelial cell (BUVEC E6E7) monolayer; experiment: Vasopermeability in vitro: transit of Evans blue linked albumin across endothelial monolayer; assay type: cell-based, bovine; conditions: 100 nM, 50 ng ml^-1 VEGF
Description: For evaluating if the oligopeptide THGRGFI conserves the inhibitory properties of vasoinhibin on vascular permeability, the transit of Evans blue linked albumin across an endothelial cell (BUVEC E6E7) monolayer was evaluated as follows:
BUVEC E6E7 cells were seeded over a transwell filter (pore of 0.4 μm) at a density of 10,000 cells cm^−2. After 3 days, the monolayers were starved with low serum (0.1 FBS) for 48 hours. Subsequently, 100 nM of the vasoinhibin or the oligopeptide of the present invention were added to the upper compartment (luminal part) of the transwell support, incubated for 1 hour, and followed by the addition of 50 ng ml^−1 of VEGF. Control (Ctl) was without VEGF, vasoinhibin and the oligopeptide. […] Samples of 50 μl of the abluminal compartment were collected and replaced by fresh PBS at 10, 20, 30 and 60 minutes. The absorbance (620 nm) was measured at all time points using a plate reader iMARK (BioRad). Absorbance values confirmed the transit of Evans blue labeled albumin across the endothelial monolayer.

[2] = system: immortalized bovine umbilical-vein endothelial cells (BUVEC E6E7); experiment: Proliferation of BUVEC E6E7 endothelial cells stimulated with VEGF (EdU click assay); assay type: cell-based; conditions: BUVEC E6E7, 50 ng ml^-1 VEGF, 24 hours, 0.001 to 100 nM; read-out: effective dose (EC50) for inhibition of proliferation
Description: (§1) On a 96-well plate treated for cell culture, BUVEC E6E7 and HUVEC cells were seeded at a density of ˜14,000 and ˜11,000 cells cm^−2, respectively. BUVEC E6E7 cells were maintained in F12K culture media with 10% (v/v) fetal bovine serum (FBS) and the HUVEC in F12K media supplemented with 20% of FBS, 100 μg ml^−1 heparin and 25 μg ml^−1 of endothelial cell growth supplement (ECGS). After 24 hours, the cells were starved with FBS-reduced media (0.1% of FBS for BUVEC E6E7 and 0.5% for HUVEC) for 16 hours to synchronize cells in phase GO of the reproductive cycle. After this time, FBS and heparin were replenished only to HUVEC. The cells were then treated with vasoinhibin or the oligopeptide THGRGFI in concentrations ranging from 0.001 to 100 nM for 24 hours in the presence of 10 μM of the thymidine analog 5-Ethynyl-2′-deoxyuridine (EdU) and 50 ng ml^−1 VEGF for the BUVEC E6E7 or the combination of 25 ng ml^−1 VEGF and 20 ng ml^−1 bFGF for HUVEC. At the end of the experiment, cells were fixed with 4% paraformaldehyde, permeabilized with 0.5% Triton X-100 in TBS1x, and stained to detect the newly synthetized DNA by the incorporation of EdU using the “click” assay (which involves a copper catalyzed reaction to covalently bind fluorescent azide to the EDU incorporated to DNA). Total DNA was counterstained with Hoechst 33342 and the “click”-stained nuclei were quantified and plotted relative to the total number of Hoechst 33342-stained nuclei.
For the assay, BUVEC E6E7 cells were seeded at a density of ˜14′000 cells cm^−2 in a 96 well plate with F12K with 10% (v/v) FBS. After 24 hours, cells were starved with 0.1% of FBS for GO synchronization for ˜16 hours. Next, the cells were treated with the different oligopeptides in presence of 10 μM of the thymidine analog EdU and 50 ng ml^−1 of VEGF. Finally, the cells were fixed, permeabilized, and stained for the newly synthetized DNA by the EdU incorporation through the ‘click’ assay. The total DNA was stained with Hoechst 33342 and the percentage of ‘click’-stained nuclei over the total nuclei was a measure of proliferation.

[3] = system: immortalized endothelial cells from the bovine umbilical vein (BUVEC E6E7); experiment: Transwell Matrigel invasion of BUVEC E6E7 stimulated with VEGF; assay type: cell-based; conditions: BUVEC E6E7, 100 nM, VEGF 50 ng mL^-1, 24 hours
Description: Endothelial cells were seeded over 100 μl Matrigel™ matrix (380 ng μl^−1) on a permeable ‘transwell’ support in a transwell chamber having an area of 0.33 cm^2 and 8 μm of pore-diameter at a density of 30,000 and 14,000 cells cm^−2 for BUVEC E6E7 and HUVEC cells, respectively. In the upper (luminal) compartment the cells were maintained with starving media F12K having 0.1 or 0.5% FBS for BUVEC E6E7 and HUVEC, respectively. In addition, HUVEC cells were maintained with 100 μg ml^−1 heparin. […] After 24 hours the media from both compartments and the luminal cells were removed. The abluminal cells were fixed with 100% MeOH for 10 minutes, permeabilized with TBS1x-0.5% Triton X-100, and stained with Hoechst 33342. The total number of cells in the abluminal compartment indicates the invasive activity of endothelial cells.
The inhibitory effect of 100 nM of the oligopeptide THGRGFI on the invasion of immortalized endothelial cells from the bovine umbilical vein (BUVEC E6E7) (FIG. 3A) or primary cells from the human umbilical vein (HUVEC) (FIG. 3B) stimulated in each case with VEGF (50 ng mL^−1) was compared with the inhibitory effect of 100 nM of the 123 amino acid vasoinhibin (***P<0.001).

[4] = system: human umbilical-vein endothelial cells (HUVEC); experiment: Proliferation of HUVEC stimulated with VEGF and bFGF (EdU click assay); assay type: cell-based; conditions: HUVEC, 25 ng ml^-1 VEGF and 20 ng ml^-1 bFGF, 24 hours, 0.001 to 100 nM; read-out: effective dose (EC50) for inhibition of proliferation
Description: as §1
HUVEC were seeded on a 96 well plate at a density of ˜11,000 cells cm^−2 and maintained in F12K supplemented with 20% of FBS, 100 μg ml^−1 heparin and 25 μg ml^−1 endothelial cell growth supplement (ECGS). After 24 hours, the cells were synchronized in GO with starving conditions (FBS 0.5%) for 16 hours, and after that FBS and the heparin were replenished. Cells were then treated with THGRGFI, the different oligopeptides and 123 amino acids vasoinhibin, each in a concentration of 100 nM, for 24 hours in presence or absence of 10 μM of thymidine analog 5-Ethynyl-2′-deoxyuridine (EdU) and a combination of 25 ng ml^−1 VEGF and 20 ng ml^−1 bFGF. Finally, the cells were fixed with 4% paraformaldehyde, permeabilized with 0.5% of Triton X-100 in TBS1x and stained for the newly synthetized DNA with the ‘click’ method that detects the EdU incorporation. Total DNA was stained with Hoechst 33342 and the percentage of ‘click’-stained nuclei relative to total nuclei (Hoechst 33342-stained) indicated cell proliferation.
Approximately 11,000 HUVEC cells cm^−2 were seeded on a 96 well plate in F12K media with 20% FBS, 100 μg ml^−1 heparin and 25 μg ml^−1 ECGS. After 24 hours, cells were starved with 0.5% of FBS for ˜16 hours, and after that time the FBS and heparin were added again and cells treated with different doses of the alanine substituted oligopeptides for 24 hours, in the presence of EdU and a combination of 25 ng ml^−1 VEGF and 20 ng ml^−1 bFGF. Finally, the cells were fixed, permeabilized and stained to quantify the synthesis of DNA as a sign of proliferation.

With “Ac-THGRGFI-NH2 [THGRGFI, Thr His Gly Arg Gly Phe Ile]” as the substance, how does the “inhibition of VEGF-induced endothelial permeability (Evans blue-albumin transit)” value [1] read?
The value was “inhibited the VEGF-induced increase in endothelial permeability”.

What about the EC50 [2] of the same substance?
The EC50 was ~1 nM.

And the “inhibition of invasion of endothelial cells” value [3]?
Its value is “significatively inhibited”.

What about the EC50 [4] of the same substance?
The EC50 was ~1 nM.
